PubChem BioAssay (NCI)
Where “and” joins values, the source holds several entries; their conditions need not be identical. Equal entries are not always repeated.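 Interpolation was linear, between the two tested concentrations surrounding the appropriate level; five concentrations were tested over 48 hours in 96-well plates. GI50 = concentration required for 50% inhibition of growth. The concentration for full growth arrest is given as TGI.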

Each molecule was assayed on SK-MEL-5 melanoma (assay: NCI tumour cell line growth inhibition, 48 h).
In the case of `N#Cc1nn(-c2cc(=O)[nH]c3ccc(Cl)cc23)c(N)c1C#N`, the GI50 was over 100000 nM and the TGI was over 100 µM.
In the case of `NNC(=O)CNc1cccc(Br)c1`, the TGI was over 100 µM.
For `NC(N)=NCCCC(=O)O`, the TGI was over 100 µM.
`CCN1CCN(c2cc(C)c3cc(NC(=O)c4ccc(OC)c(OC)c4)ccc3n2)CC1` gave a GI50 of 1170 nM and a TGI of over 42.3 µM.
In the case of `COC(=O)c1c2c(c(C)[n+]([O-])c1C)C(=O)C=C(NCc1ccc(F)cc1)C2=O`, the GI50 was 193 nM and the TGI was 0.405 µM.
For `CCCC(=O)Nc1cn(COC)c(C(=O)N2C[C@@H]3C[C@]34C2=CC(=O)c2[nH]cc(C)c24)n1`, the GI50 was 3280 nM and the TGI was 12.8 µM and 11.8 µM.
For `CNCCOC(=O)/C=C1\CC[C@H]2[C@@H]([C@@H](O)C(=O)[C@@H]3[C@]2(C)CC[C@H](O)[C@]3(C)C(=O)OC)[C@H]1C`, the GI50 was 252 nM and the TGI was 0.734 µM.
Molecule `Cc1nnc(Nc2ccc(NC(=O)Nc3ccc(Cl)cc3)cc2)c2ccccc12` has a GI50 of 1850 nM and a TGI of 3.5 µM.
Work on `CC(=O)ON1CCCC(P(=O)(OCCSC(=O)C(C)(C)C)OCCSC(=O)C(C)(C)C)C1=O` (stereo not drawn) yielded a GI50 of 1210 nM and a TGI of 4.15 µM.
With `COC(=O)[C@]12CC[C@@H](C)[C@H](C)[C@@H]1C1=CC[C@@H]3[C@@]4(C)C[C@@H](O)[C@H](O)[C@@](C)(CO)C4=CC[C@@]3(C)[C@]1(C)CC2` the GI50 was 12800 nM and the TGI was 27.3 µM.
`Cc1nc(N)sc1N=Nc1ccccc1Br` gave a TGI of 48.6 µM.
`NS(=O)(=O)c1ccc(N=Nc2c(O)c(C(=O)O)cc3ccccc23)cc1` gave a TGI of over 100 µM.
`Cc1c(N(C)C)ccc2c(=O)c3cccc(CC(=O)O)c3oc12` was tested, and the TGI was over 100 µM.
In the case of `CC(NCCC(c1ccccc1)c1ccccc1)c1ccccc1` (stereo not drawn), the GI50 was 1600 nM and the TGI was 2.95 µM.
`C/C(N=NC(=S)N1CC2CCC(CC2)C1)=C1\C=CC=CN1O` showed a TGI of 41.1 µM.
For `O=C(Nc1ccc(Br)cc1F)c1cc(Cl)ccc1O`, the GI50 was 273 nM and the TGI was 0.815 µM.
Molecule `NC(N)=N/N=C/c1c(Cl)cccc1Cl` has a GI50 of 14600 nM and a TGI of 27.7 µM.
`S=c1[nH]c(=S)c2cc3ccccc3nc2[nH]1` gave a GI50 of 30000 nM and a TGI of over 100 µM.
With `O=C(Nc1cccc(C(F)(F)F)c1)c1ccc(NC2=C(Cl)C(=O)N(Cc3ccc(Cl)cc3Cl)C2=O)cc1` the GI50 was 1780 nM and the TGI was 3.5 µM.
`CCC[CH2][Sn]([CH2]CCC)([O]C(=O)c1ccc(OC)c(OC)c1OC)[O][Sn]([CH2]CCC)([CH2]CCC)[O]C(=O)c1ccc(OC)c(OC)c1OC` was tested, and the GI50 was 604 nM and the TGI was 1.81 µM.

The molecules below were run on U251 CNS (assay: NCI tumour cell line growth inhibition, 48 h).
`N#Cc1nn(-c2cc(=O)[nH]c3ccc(Cl)cc23)c(N)c1C#N` showed a GI50 of over 100000 nM and a TGI of over 100 µM.
`NNC(=O)CNc1cccc(Br)c1` showed a TGI of over 100 µM.
`NC(N)=NCCCC(=O)O` gave a TGI of over 100 µM.
In the case of `CCN1CCN(c2cc(C)c3cc(NC(=O)c4ccc(OC)c(OC)c4)ccc3n2)CC1`, the GI50 was over 50500 nM and the TGI was over 100 µM.
`COC(=O)c1c2c(c(C)[n+]([O-])c1C)C(=O)C=C(NCc1ccc(F)cc1)C2=O` gave a GI50 of 999 nM and a TGI of 2.62 µM.
For `CCCC(=O)Nc1cn(COC)c(C(=O)N2C[C@@H]3C[C@]34C2=CC(=O)c2[nH]cc(C)c24)n1`, the GI50 was 4930 nM and the TGI was 50 µM and 21.1 µM.
`CNCCOC(=O)/C=C1\CC[C@H]2[C@@H]([C@@H](O)C(=O)[C@@H]3[C@]2(C)CC[C@H](O)[C@]3(C)C(=O)OC)[C@H]1C` was tested, and the GI50 was 324 nM and the TGI was 1.17 µM.
With `Cc1nnc(Nc2ccc(NC(=O)Nc3ccc(Cl)cc3)cc2)c2ccccc12` the GI50 was 1980 nM and the TGI was 3.75 µM.
`CC(=O)ON1CCCC(P(=O)(OCCSC(=O)C(C)(C)C)OCCSC(=O)C(C)(C)C)C1=O` (stereo not drawn) was tested, and the GI50 was 1020 nM and the TGI was 64.3 µM.
`COC(=O)[C@]12CC[C@@H](C)[C@H](C)[C@@H]1C1=CC[C@@H]3[C@@]4(C)C[C@@H](O)[C@H](O)[C@@](C)(CO)C4=CC[C@@]3(C)[C@]1(C)CC2` was tested, and the GI50 was 16500 nM and the TGI was 34.1 µM.
For `Cc1nc(N)sc1N=Nc1ccccc1Br`, the TGI was 52.6 µM.
Molecule `NS(=O)(=O)c1ccc(N=Nc2c(O)c(C(=O)O)cc3ccccc23)cc1` has a TGI of over 100 µM.
`Cc1c(N(C)C)ccc2c(=O)c3cccc(CC(=O)O)c3oc12` showed a TGI of over 100 µM.
`CC(NCCC(c1ccccc1)c1ccccc1)c1ccccc1` (stereo not drawn) was tested, and the GI50 was 1590 nM and the TGI was 2.99 µM.
With `C/C(N=NC(=S)N1CC2CCC(CC2)C1)=C1\C=CC=CN1O` the TGI was over 61.4 µM.
`O=C(Nc1ccc(Br)cc1F)c1cc(Cl)ccc1O` showed a GI50 of 709 nM and a TGI of over 100 µM.
With `NC(N)=N/N=C/c1c(Cl)cccc1Cl` the GI50 was 16300 nM and the TGI was 33.7 µM.
`S=c1[nH]c(=S)c2cc3ccccc3nc2[nH]1` gave a GI50 of 5980 nM and a TGI of 41.6 µM.
With `O=C(Nc1cccc(C(F)(F)F)c1)c1ccc(NC2=C(Cl)C(=O)N(Cc3ccc(Cl)cc3Cl)C2=O)cc1` the GI50 was 5820 nM and the TGI was 19 µM.
For `CCC[CH2][Sn]([CH2]CCC)([O]C(=O)c1ccc(OC)c(OC)c1OC)[O][Sn]([CH2]CCC)([CH2]CCC)[O]C(=O)c1ccc(OC)c(OC)c1OC`, the GI50 was 274 nM and the TGI was 1.1 µM.

The molecules below were run on SK-MEL-28 melanoma (assay: NCI tumour cell line growth inhibition, 48 h).
`N#Cc1nn(-c2cc(=O)[nH]c3ccc(Cl)cc23)c(N)c1C#N` was tested, and the GI50 was over 100000 nM and the TGI was over 100 µM.
Work on `NNC(=O)CNc1cccc(Br)c1` yielded a TGI of over 100 µM.
In the case of `NC(N)=NCCCC(=O)O`, the TGI was over 100 µM.
`CCN1CCN(c2cc(C)c3cc(NC(=O)c4ccc(OC)c(OC)c4)ccc3n2)CC1` gave a GI50 of 19900 nM and a TGI of over 59.7 µM.
With `COC(=O)c1c2c(c(C)[n+]([O-])c1C)C(=O)C=C(NCc1ccc(F)cc1)C2=O` the GI50 was 1100 nM and the TGI was 3.37 µM.
With `CCCC(=O)Nc1cn(COC)c(C(=O)N2C[C@@H]3C[C@]34C2=CC(=O)c2[nH]cc(C)c24)n1` the TGI was 50 µM and 32.2 µM.
In the case of `CNCCOC(=O)/C=C1\CC[C@H]2[C@@H]([C@@H](O)C(=O)[C@@H]3[C@]2(C)CC[C@H](O)[C@]3(C)C(=O)OC)[C@H]1C`, the GI50 was 1060 nM and the TGI was 2.61 µM.
`Cc1nnc(Nc2ccc(NC(=O)Nc3ccc(Cl)cc3)cc2)c2ccccc12` showed a GI50 of 1630 nM and a TGI of 3.2 µM.
`CC(=O)ON1CCCC(P(=O)(OCCSC(=O)C(C)(C)C)OCCSC(=O)C(C)(C)C)C1=O` (stereo not drawn) was tested, and the GI50 was 1560 nM and the TGI was 15.5 µM.
